“Also recorded” adds a separate entry of the source. Read-outs that look alike come from different tables or passages of the source.
How the values were obtained:
[1] = tested on: allogeneic immune response in popliteal lymph node; experiment: In vivo assay of immunosuppressive activity: allogeneic immune response in draining popliteal lymph node after footpad injection; parameters: species or system C3H mice; conditions: for lymph node mass, net increase / lymph node mass, stimulated / lymph node mass, unstimulated: day 4; for lymph node mass, stimulated: left footpad; for lymph node mass, unstimulated: right footpad
Text: In vivo Assay of Immunosuppressive Activity: Footpad injection of the synthetic ganglioside derivatives being studied and of the stimulant of the cellular immune response (allogeneic cells), is subsequently followed by harvest of the popliteal node and assessment of the node size, cell number, specific proliferation response and generation of specific cytotoxicity.
Mice: C3H (H-2^K) and BALB/c (H-2^d) mice are obtained at 6 weeks of age and used in these experiments at 7-12 weeks of age. The animals are murine virus free strains purchased from Charles River, Wilmington, Mass.
Preparation of stimulator cells: Spleens are removed aseptically and immediately placed in murine complete media [RPMI 1640 w/o L-glutamine (Whittaker Bioproducts, Walkersville, Md.) supplemented with 10% FCS; 1% of MEM non-essential amino acids (Cellgro), sodium pyruvate, L-glutamine, Penicillin 50 U/ml/Streptomycin 50 μg/ml and 10 mM Hepes Buffer (Whittaker Bioproducts)] then transferred to a 60×10 mm petri dish. A sterile single cell suspension is prepared by gently pressing the spleen onto a cell dissociation sieve (Sigma). Mononuclear cells are isolated by Ficoll-Hypaque density gradient separation, followed by lysis of erythrocytes (ACK lysing buffer pH 7.4). The cells are washed and their viability determined by trypan blue exclusion. Allogeneic (BALB/c) splenocytes are diluted to the appropriate concentration in saline and are injected into the footpad of C3H mice together with the synthetic ganglioside derivatives to be tested.
Preparation of synthetic ganglioside derivatives: Synthetic ganglioside derivatives are aliquoted in HPLC-grade chloroform:methanol (1:1), and dried in glass microvials. The synthetic ganglioside derivatives are then resuspended for injection in 0.9% NaCl, sonicated for 2 min in a Branson water bath sonicator.
Injections: Spleen cells or tumor cells and the synthetic ganglioside derivatives being studied are injected into the left hind footpad in a total volume of 30 μl.
Isolation of popliteal lymph nodes: Primed animals are killed by cervical dislocation on day 4, the popliteal lymph node draining the left and right footpads are removed aseptically, trimmed free of excess fat, weighted and placed on ice in tubes containing tissue culture medium. The nodes are then teased with a flat end of a 3 ml syringe to obtain a single cell suspension, which is washed in complete murine media containing 0.1% 2mercaptoethanol (Gibco, New York). The cells are then quantified and their viability determined by trypan blue exclusion. The cell concentration is adjusted to 2×10^6 cells/ml.
Cell cultures: 2×10^5 lymph node cells in 100 μl are cultured for 18 hours in complete medium with 0.5 μC ^3 H-thymidine incorporation quantified by β-scintillation counting as a measure of in vivo lymphocyte activation (50).
In this model, the immune response in a local microenvironment directed against allogeneic cells is assessed. Allogeneic (C3H mice) spleen cells were injected into the footpad of BALB/c mice and the draining popliteal lymph nodes were removed from the sacrificed mice four days later.

[2] = tested on: normal human peripheral blood mononuclear leukocytes; experiment: cells; type: cell-based
[3] = Table 2, mean ± SD of five mice, dialkyl GM3 11 μg coinjected, CSA 24 mg/kg/day i.p. × 4 days
[4] = Homo sapiens, Leukocyte, 2.5 μM, read-out: Inhibition
[5] = Homo sapiens, Leukocyte, 5.0 μM, read-out: Inhibition
[6] = Homo sapiens, Leukocyte, read-out: inhibition of human lymphoproliferation
[7] = Table 1, mean ± SD of five mice, GM3 n=1 10 nmol coinjected, cyclosporin A 24 mg/kg/dose i.p. × 4 doses
[8] = Table 4, mean ± SD of five mice, ganglioside 10 nmol coinjected, CSA 24 mg/kg/dose i.p. × 4 doses

Compound: CCCCCCCCCCCCCCC(CCCCCCCCCCCCCC)COC1OC(CO)C(OC2OC(CO)C(O)C(OC3(C(=O)O)CC(O)C(NC(C)=O)C(C(O)C(O)CO)O3)C2O)C(O)C1O [dialkyl GM3, 2-(Tetradecylhexadecyl) O-(5-acetamido-3,5-dideoxy-D-glycero-D-galacto-2-nonulopyranosylonic acid)-(2→3)-O-β-D-galactopyranosyl-(1→4)-β-D-glucopyranoside]
- [^3 H]thymidine uptake (spontaneous lymphoproliferation) [1]: 317 ± 45 cpm
- [^3 H]thymidine uptake relative to control group ([1]; 2×10^5 cells): 20%
- [^3 H]thymidine uptake (spontaneous lymphoproliferation) ([1]; Table 2, 0.5 × 10^5 cells, mean ± SEM of three cultures): 107 ± 29 cpm
- [^3 H]thymidine uptake (spontaneous lymphoproliferation) ([1]; Table 2, 1 × 10^5 cells, mean ± SEM of three cultures): 152 ± 15 cpm
- lymph node mass, net increase ([1]; Table 2, dialkyl GM3 11 μg coinjected, CSA 24 mg/kg/day i.p. × 4 days): 0.45 mg
- lymph node mass, stimulated [1, 3]: 1.86 ± 0.25 mg
- lymph node mass, unstimulated [1, 3]: 1.41 ± 0.17 mg
- lymphocytes (total mononuclear leukocytes recovered from five stimulated popliteal lymph nodes) ([1]; Table 2, dialkyl GM3 11 μg, CSA 24 mg/kg/day i.p. × 4 days): 0.83 ×10^7
- suppression of the immune response / proliferation, in words ([1]; Table 2, three cell densities for proliferation): marked suppression of the immune response; also recorded: markedly suppresses the proliferation
- lymphocyte number as fraction of control group ([1]; control group 2.3×10^7 cells): ≤ 1/3
- net increase of lymph node mass ([1]; dialkyl GM3 10 nmol or 11 μg/mouse coinjected, cyclosporin A systemic): 0.45 mg
- lymphocyte (mononuclear-leukocyte) number ([1]; five nodes from five mice): 0.8 ×10^7
- immunosuppressive activity in vitro, in words [2]: marked immunosuppressive activity; also recorded: higher degree of inhibition of dialkyl GM3 than that of GM3 is readily observed
- potency relative to GM3 d18:1-C18:0 [2]: four-fold
- [^3 H] Thymidine Uptake ([2]; 2.5 μM): 0.7 CPM × 10^-3
- [^3 H] Thymidine Uptake ([2]; 5.0 μM): 0.3 CPM × 10^-3
- IC50 ([2]; Homo sapiens, Leukocyte, 0-10 μM, read-out: ID50, inhibition of human lymphoproliferation): 0.2 µM
- inhibition at 2.5 µM [2, 4]: 93%
- inhibition at 5 µM [2, 5]: 97%
- IC90 ([2]; Homo sapiens, Leukocyte, read-out: concentration at which 90% inhibition was observed, 0-20 μM): < 7 µM

Compound: CCCCCCCCCCCCCC=CC(O)C(COC1(C(=O)O)CC(O)C(NC(C)=O)C(C(O)C(O)CO)O1)NC(=O)CCCCCCCCCCCCCCCCC [βGM5, (2S,3R,4E)-1-O-(5-acetamido-3,5-dideoxy-D-glycero-α- and β-D-galacto-f2-nonulopyranosylonicacid)-2-octadecanamido-4-octadecene-1,3-diol]
- immunosuppressive activity in vitro, in words [2]: potent immunosuppressive agents
- [^3 H] Thymidine Uptake ([2]; 2.5 μM): 1.4 CPM × 10^-3
- [^3 H] Thymidine Uptake ([2]; 5.0 μM): 0.3 CPM × 10^-3
- inhibition at 2.5 µM [2, 6]: 86%
- inhibition at 5 µM [2, 6]: 97%

Compound: CCCCCCCCCCCCCC=CC(O)C(COC1OC(CO)C(OC2OC(CO)C(O)C(OC3(C(=O)O)CC(O)C(NC(C)=O)C(C(O)C(O)CO)O3)C2O)C(O)C1O)NC(C)=O (stereo not drawn) [GM3 n=1]
- [^3 H]thymidine uptake (spontaneous lymphoproliferation) ([1]; Table 1, 2 × 10^5 cells/well, mean ± SD of three cultures): 329 ± 18 cpm
- lymphocytes (total mononuclear leukocytes recovered from five stimulated popliteal lymph nodes) ([1]; Table 1, GM3 n=1 10 nmol, cyclosporin A 24 mg/kg/dose i.p. × 4 doses): 1.03 × 10^7
- lymph node mass, stimulated [1, 7]: 1.84 ± 0.30 mg
- lymph node mass, net increase [1, 7]: 0.56 ± 0.36 mg
- lymph node mass, unstimulated [1, 7]: 1.29 ± 0.24 mg
- P, difference in net increase of popliteal nodes between control and GM3 n = 1 treated groups ([1]; Table 1 footnote): < 0.01
- in vivo immunosuppressive activity compared with mixed human brain gangliosides ([1]; mouse, in vivo): much more active than the mixed brain gangliosides
- in vivo immunosuppressive activity compared with cyclosporin A ([1]; single dose of GM3 n=1, Table 1): almost as immunosuppressive as systemically administered cyclosporin A
- immunosuppressive activity compared with lyso GM3 (n=-1) [2]: higher degree of immunosuppressive activity
- immunosuppressive activity compared with n = 17 or 23 [2]: greater immunosuppressive activity than glycosphingolipids wherein n is 17 or 23
- relative immunosuppressive activity (inhibition of human lymphoproliferative response) ([2]; 5 μM): highest immunosuppressive activity
- IC50 ([2]; Homo sapiens, Leukocyte, read-out: ID50, inhibition of the human lymphoproliferative response): 0.0002 µM

Compound: CCCCCCCCCCCCCC=CC(O)C(COC1OC(CO)C(OC2OC(CO)C(O)C(OC3(C(=O)O)CC(O)C(NC(C)=O)C(C(O)C(O)CO)O3)C2O)C(O)C1O)NC(=O)CCCCCCCCCCCCC (stereo not drawn) [GM3 d18:1-C14:0]
- [^3 H] Thymidine Uptake ([2]; 2.5 μM): 4.6 CPM × 10^-3
- [^3 H] Thymidine Uptake ([2]; 5.0 μM): 0.8 CPM × 10^-3
- inhibition at 2.5 µM [2, 4]: 53%
- inhibition at 5 µM [2, 5]: 92%

Compound: CCCCCCCCCCCCCC=CC(O)C(COC1(C(=O)O)CC(O)C(NC(C)=O)C(C(O)C(O)CO)O1)NC(=O)CCCCCCCCCCCCCCCCC [αGM5, (2S,3R,4E)-1-O-(5-acetamido-3,5-dideoxy-D-glycero-α- and β-D-galacto-f2-nonulopyranosylonicacid)-2-octadecanamido-4-octadecene-1,3-diol]
- lymph node mass, net increase ([1]; Table 4, ganglioside 10 nmol coinjected, CSA 24 mg/kg/dose i.p. × 4 doses): 0.58 mg
- lymph node mass, stimulated [1, 8]: 1.40 ± 0.22 mg
- lymph node mass, unstimulated [1, 8]: 0.82 ± 0.26 mg
- in vivo immunosuppression, in words ([1]; αGM5, compared to systemically administered cyclosporin A, Table 4): highly immunosuppressive in vivo
- reduction in cellular immune response (increase in lymph mass caused by in vivo allostimulation) ([1]; αGM5, Table 4): 2/3
- immunosuppressive activity in vitro, in words [2]: potent immunosuppressive agents
- [^3 H] Thymidine Uptake ([2]; 2.5 μM): 0.1 CPM × 10^-3
- [^3 H] Thymidine Uptake ([2]; 5.0 μM): 0.1 CPM × 10^-3
- inhibition at 2.5 µM [2, 4]: 99%
- inhibition at 5 µM [2, 5]: 99%
- IC90 ([2]; Homo sapiens, Leukocyte, read-out: ID90): ~2.5 µM
- inhibition at 0.0025 µM [2, 6]: 99%
- inhibition at 0.005 µM [2, 6]: 99%

Reference: patent publication US5567684A, “Synthetic ganglioside derivatives” (The Regents of The University of California, priority 1994, dated 1996)
